Data reported in ChEMBL document CHEMBL1201862, “PubChem BioAssay data set” (2004).
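Results reflect a 48-hour exposure of cells in 96-well plates to compound at five concentrations. Here, GI50 denotes the concentration required for 50% inhibition of growth.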 The source made the active and inactive calls. Cut-off read from the data, not from the text of the source: active = GI50 up to about 1.1 µM and inactive = higher.

Legend:
Assay in all cases: inhibition of tumour cell growth, NCI panel, 48 h
[1] = test system: IGROV-1
[2] = test system: OVCAR-4
[3] = test system: U-251
[4] = test system: MDA-MB-435
[5] = test system: OVCAR-3
[6] = test system: MCF7
[7] = test system: SK-MEL-28
[8] = test system: UACC-257
[9] = test system: SR
[10] = test system: MDA-N
[11] = test system: PC-3
[12] = test system: HCC 2998
[13] = test system: M14
[14] = test system: NCI/ADR-RES
[15] = test system: COLO 205
[16] = test system: SNB-19
[17] = test system: SNB-75
[18] = test system: SF-295
[19] = test system: LOX IMVI
[20] = test system: RXF 393
[21] = test system: HCT-15
[22] = test system: MOLT-4
[23] = test system: UACC-62
[24] = test system: CCRF-CEM
[25] = test system: OVCAR-5
[26] = test system: NCI-H522
[27] = test system: K562
[28] = test system: Malme-3M
[29] = test system: A498
[30] = test system: SF-539
[31] = test system: OVCAR-8
[32] = test system: NCI-H460
[33] = test system: HCT-116
[34] = test system: HOP-92
[35] = test system: BT-549
[36] = test system: ACHN
[37] = test system: RPMI-8226
[38] = test system: NCI-H23
[39] = test system: SK-MEL-5
[40] = test system: UO-31
[41] = test system: 786-0
[42] = test system: TK-10
[43] = test system: A549
[44] = test system: SN12C
[45] = test system: SK-MEL-2
[46] = test system: HL-60
[47] = test system: MDA-MB-231
[48] = test system: CAKI-1
[49] = test system: SW-620
[50] = test system: EKVX
[51] = test system: DU-145
[52] = test system: SK-OV-3
[53] = test system: KM12

In the case of `CC(C)CC(NC(=O)C(CSc1ccc([N+](=O)[O-])cc1)Cc1ccccc1)C(=O)Nc1ccccc1` (stereo not drawn), the GI50 [1] was 46.6 µM (inactive), the GI50 [2] was 35.1 µM (inactive) and the GI50 [3] was > 100 µM (inactive). For the same compound, the GI50 [4] was > 100 µM (inactive), the GI50 [5] was > 100 µM (inactive) and the GI50 [6] was 63.7 µM (inactive). The GI50 [7] was 98.2 µM (inactive), the GI50 [8] was > 100 µM (inactive) and the GI50 [9] was > 100 µM (inactive). For the same compound, the GI50 [10] was > 100 µM (inactive), the GI50 [11] was > 100 µM (inactive) and the GI50 [12] was > 100 µM (inactive). The GI50 [13] was 99.8 µM (inactive), the GI50 [14] was 30.2 µM (inactive) and the GI50 [15] was > 100 µM (inactive). For the same compound, the GI50 [16] was 45.5 µM (inactive), the GI50 [17] was 26.4 µM (inactive) and the GI50 [18] was 39.1 µM (inactive). The GI50 [19] was > 100 µM (inactive), the GI50 [20] was > 100 µM (inactive) and the GI50 [21] was > 100 µM. For the same compound, the GI50 [22] was 59 µM (inactive), the GI50 [23] was > 100 µM (inactive) and the GI50 [24] was 33.1 µM (inactive). For the same compound, the GI50 [25] was > 100 µM (inactive), the GI50 [26] was 64.9 µM (inactive) and the GI50 [27] was 85.5 µM (inactive). The GI50 [28] was 27 µM (inactive), the GI50 [29] was > 100 µM (inactive) and the GI50 [30] was 47.9 µM (inactive). The GI50 [31] was 48.8 µM (inactive), the GI50 [32] was 49.8 µM (inactive) and the GI50 [33] was > 100 µM (inactive). The GI50 [34] was > 100 µM (inactive), the GI50 [35] was 12.3 µM (inactive) and the GI50 [36] was 80.7 µM (inactive). The GI50 [37] was > 100 µM (inactive), the GI50 [38] was > 100 µM (inactive) and the GI50 [39] was 64.3 µM (inactive). For the same compound, the GI50 [40] was 43.1 µM (inactive), the GI50 [41] was 44.7 µM (inactive) and the GI50 [42] was 58.2 µM (inactive). For the same compound, the GI50 [43] was 93.5 µM (inactive), the GI50 [44] was > 100 µM (inactive) and the GI50 [45] was > 100 µM (inactive). The GI50 [46] was 40.9 µM (inactive), the GI50 [47] was > 100 µM (inactive) and the GI50 [48] was 72.1 µM (inactive). For the same compound, the GI50 [49] was > 100 µM (inactive), the GI50 [50] was > 100 µM (inactive) and the GI50 [51] was 89.3 µM (inactive). For the same compound, the GI50 [52] was > 100 µM (inactive) and the GI50 [53] was 41.4 µM (inactive).
